# Key:
# Format in all cases: in vivo
# Matricaria chamomilla = assay: post-emergence test, pot trial (Examples 1-5); settings: bigger plants, 28 d, PT, pelargonic acid 10880 g/ha, 16 L/ha
# Text: (§1) The expected activity of a given combination of two or three herbicides can be calculated as follows according to a calculation method by Colby (cf. COLBY, S. R.: “Calculating synergistic and antagonistic responses of herbicide combinations”, • Weeds 15, pages 20-22, 1967): • If X=% damage by herbicide (A) at an application rate of m g/ha, • Y=% damage by herbicide (B) at an application rate of n g/ha, • E=the expected damage by herbicides (A) and (B) at application rates of m and n […] and, • then for a combination:
# (§2) Individual compositions comprising pelargonic acid or flazasulfuron are compared with a herbicide composition according to the invention comprising pelargonic acid and flazasulfuron.
# (§3) Herbicidal activity was determined by performing a post-emergence test. […] The corresponding mixture was in the form of a spray liquor. Besides, spray liquors of individual compositions comprising pelargonic acid or flazasulfuron were used.
# (§4) Tests were performed on test fields (field trials) or in pots (pot trials).
# Poa annua = assay: post-emergence test, pot trial (Examples 1-5); settings: 28 d, PT; pelargonic acid 10880 g/ha, flazasulfuron 50 g/ha; 16 L/ha
# Text: as §1, §2, §3, §4
# Trifolium repens = assay: post-emergence test, pot trial (Examples 1-5); settings: 28 d, PT; pelargonic acid 10880 g/ha, flazasulfuron 50 g/ha; 16 L/ha
# Text: as §1, §2, §3, §4
# Amaranthus retroflexus = assay: post-emergence field trial under rows of vines, 150-200 L water/ha (Examples 6-9); settings: flazasulfuron 40 g/ha
# Text: as §1, §2
# (§5) Herbicidal activity was determined by performing a post-emergence test. […] The corresponding mixture was in the form of a spray solution. Besides, spray solutions of individual compositions comprising pelargonic acid or flazasulfuron were used.
# (§6) The spray solution was applied on plants of unwanted vegetation present on fields where perennial crops were grown.
# (§7) After 5 to 88 days after application of the spray solution, the degree of damage to the unwanted vegetation is rated in % of plants of unwanted vegetation that were killed. Tests were performed on test fields (field trials).
# Bromus oxyodon = assay: as above; settings: flazasulfuron 40 g/ha
# Text: as §1, §2, §5, §6, §7
# Chenopodium album = assay: as above; settings: flazasulfuron 40 g/ha
# Text: as §1, §2, §5, §6, §7
# Digitaria sanguinalis = assay: as above; settings: flazasulfuron 40 g/ha
# Text: as §1, §2, §5, §6, §7
# Erigeron sumatrensis = assay: as above; settings: flazasulfuron 40 g/ha
# Text: as §1, §2, §5, §6, §7
# Geranium molle = assay: as above; settings: 15 d, flazasulfuron 40 g/ha
# Text: as §1, §2, §5, §6, §7
# Oxalis latifolia = assay: as above; settings: flazasulfuron 40 g/ha
# Text: as §1, §2, §5, §6, §7
# Sonchus oleracea = assay: as above; settings: flazasulfuron 40 g/ha
# Text: as §1, §2, §5, §6, §7
# Veronica persicae = assay: as above; settings: flazasulfuron 40 g/ha
# Text: as §1, §2, §5, §6, §7
# [1] = 7 d, pelargonic acid 10880 g/ha
# [2] = 14 d, pelargonic acid 5440 g/ha
# [3] = 14 d, pelargonic acid 10880 g/ha
# [4] = 31 d, pelargonic acid 5440 g/ha
# [5] = 31 d, pelargonic acid 8160 g/ha
# [6] = 31 d, pelargonic acid 10880 g/ha
# [7] = 58 d, pelargonic acid 5440 g/ha
# [8] = 58 d, pelargonic acid 6800 g/ha
# [9] = 58 d, pelargonic acid 8160 g/ha
# [10] = 58 d, pelargonic acid 10880 g/ha
# [11] = 14 d, pelargonic acid 6800 g/ha
# [12] = 14 d, pelargonic acid 8160 g/ha
# [13] = 28 d, pelargonic acid 6800 g/ha
# [14] = 27 d, pelargonic acid 5440 g/ha
# [15] = 27 d, pelargonic acid 6800 g/ha
# [16] = 27 d, pelargonic acid 8160 g/ha
# [17] = 27 d, pelargonic acid 10880 g/ha
# [18] = 56 d, pelargonic acid 5440 g/ha
# [19] = 56 d, pelargonic acid 6800 g/ha
# [20] = 56 d, pelargonic acid 8160 g/ha
# [21] = 56 d, pelargonic acid 10880 g/ha
smiles,measurement,setting,value
"COc1cc(OC)nc(NC(=O)NS(=O)(=O)c2ncccc2C(F)(F)F)n1 [Flazasulfuron, 1-(4,6-dimethoxypyrimidin-2-yl)-3-(3-trifluoromethyl-2-pyridylsulfonyl)urea]",herbicidal effect,Matricaria chamomilla; flazasulfuron 25 g/ha,0%
same,herbicidal effect,Matricaria chamomilla; flazasulfuron 50 g/ha,2%
same,herbicidal effect,Poa annua,0%
same,herbicidal effect,Trifolium repens,1.2%
same,herbicidal effect,"Amaranthus retroflexus; 7 d, pelargonic acid 5440 g/ha",23%
same,herbicidal effect,Amaranthus retroflexus; [1],23%
same,herbicidal effect,Amaranthus retroflexus; [2],23%
same,herbicidal effect,Amaranthus retroflexus; [3],23%
same,herbicidal effect,Amaranthus retroflexus; [4],53%
same,herbicidal effect,"Amaranthus retroflexus; 31 d, pelargonic acid 6800 g/ha",53%
same,herbicidal effect,Amaranthus retroflexus; [5],53%
same,herbicidal effect,Amaranthus retroflexus; [6],53%
same,herbicidal effect,Amaranthus retroflexus; [7],78%
same,herbicidal effect,Amaranthus retroflexus; [8],78%
same,herbicidal effect,Amaranthus retroflexus; [9],78%
same,herbicidal effect,Amaranthus retroflexus; [10],78%
same,herbicidal effect,"Bromus oxyodon; 7 d, pelargonic acid 5440 g/ha",28%
same,herbicidal effect,"Bromus oxyodon; 7 d, pelargonic acid 6800 g/ha",28%
same,herbicidal effect,"Bromus oxyodon; 7 d, pelargonic acid 8160 g/ha",28%
same,herbicidal effect,Bromus oxyodon; [1],28%
same,herbicidal effect,Bromus oxyodon; [2],46%
same,herbicidal effect,Bromus oxyodon; [11],46%
same,herbicidal effect,Bromus oxyodon; [12],46%
same,herbicidal effect,Bromus oxyodon; [3],46%
same,herbicidal effect,"Bromus oxyodon; 28 d, pelargonic acid 5440 g/ha",78%
same,herbicidal effect,Bromus oxyodon; [13],78%
same,herbicidal effect,"Bromus oxyodon; 28 d, pelargonic acid 8160 g/ha",78%
same,herbicidal effect,"Bromus oxyodon; 28 d, pelargonic acid 10880 g/ha",78%
same,herbicidal effect,"Chenopodium album; 7 d, pelargonic acid 5440 g/ha",23%
same,herbicidal effect,Chenopodium album; [1],23%
same,herbicidal effect,Chenopodium album; [2],25%
same,herbicidal effect,Chenopodium album; [3],25%
same,herbicidal effect,Chenopodium album; [4],53%
same,herbicidal effect,Chenopodium album; [5],53%
same,herbicidal effect,Chenopodium album; [6],53%
same,herbicidal effect,Chenopodium album; [7],65%
same,herbicidal effect,Chenopodium album; [8],65%
same,herbicidal effect,Chenopodium album; [9],65%
same,herbicidal effect,Chenopodium album; [10],65%
same,herbicidal effect,"Digitaria sanguinalis; 7 d, pelargonic acid 5440 g/ha",51%
same,herbicidal effect,"Digitaria sanguinalis; 7 d, pelargonic acid 6800 g/ha",51%
same,herbicidal effect,"Digitaria sanguinalis; 7 d, pelargonic acid 8160 g/ha",51%
same,herbicidal effect,Digitaria sanguinalis; [1],51%
same,herbicidal effect,Digitaria sanguinalis; [2],80%
same,herbicidal effect,Digitaria sanguinalis; [11],80%
same,herbicidal effect,Digitaria sanguinalis; [12],80%
same,herbicidal effect,Digitaria sanguinalis; [3],80%
same,herbicidal effect,Digitaria sanguinalis; [14],73%
same,herbicidal effect,Digitaria sanguinalis; [15],73%
same,herbicidal effect,Digitaria sanguinalis; [16],73%
same,herbicidal effect,Digitaria sanguinalis; [17],73%
same,herbicidal effect,Digitaria sanguinalis; [18],64%
same,herbicidal effect,Digitaria sanguinalis; [19],64%
same,herbicidal effect,Digitaria sanguinalis; [20],64%
same,herbicidal effect,Digitaria sanguinalis; [21],64%
same,herbicidal effect,"Erigeron sumatrensis; 5 d, pelargonic acid 5440 g/ha",18%
same,herbicidal effect,"Erigeron sumatrensis; 5 d, pelargonic acid 8160 g/ha",18%
same,herbicidal effect,"Erigeron sumatrensis; 15 d, pelargonic acid 5440 g/ha",98%
same,herbicidal effect,"Erigeron sumatrensis; 15 d, pelargonic acid 6800 g/ha",98%
same,herbicidal effect,"Erigeron sumatrensis; 15 d, pelargonic acid 8160 g/ha",98%
same,herbicidal effect,Geranium molle; pelargonic acid 5440 g/ha,63%
same,herbicidal effect,Geranium molle; pelargonic acid 6800 g/ha,63%
same,herbicidal effect,Geranium molle; pelargonic acid 8160 g/ha,63%
same,herbicidal effect,Geranium molle; pelargonic acid 10880 g/ha,63%
same,herbicidal effect,"Oxalis latifolia; 7 d, pelargonic acid 6800 g/ha",29%
same,herbicidal effect,"Oxalis latifolia; 7 d, pelargonic acid 8160 g/ha",29%
same,herbicidal effect,Oxalis latifolia; [1],29%
same,herbicidal effect,Oxalis latifolia; [2],49%
same,herbicidal effect,Oxalis latifolia; [11],49%
same,herbicidal effect,Oxalis latifolia; [12],49%
same,herbicidal effect,Oxalis latifolia; [3],49%
same,herbicidal effect,Oxalis latifolia; [13],44%
same,herbicidal effect,Sonchus oleracea; [2],75%
same,herbicidal effect,Sonchus oleracea; [11],75%
same,herbicidal effect,Sonchus oleracea; [12],75%
same,herbicidal effect,Sonchus oleracea; [3],75%
same,herbicidal effect,Sonchus oleracea; [14],74%
same,herbicidal effect,Sonchus oleracea; [15],74%
same,herbicidal effect,Sonchus oleracea; [16],74%
same,herbicidal effect,Sonchus oleracea; [17],74%
same,herbicidal effect,Sonchus oleracea; [18],70%
same,herbicidal effect,Sonchus oleracea; [19],70%
same,herbicidal effect,Sonchus oleracea; [20],70%
same,herbicidal effect,Sonchus oleracea; [21],70%
same,herbicidal effect,"Veronica persicae; 7 d, pelargonic acid 5440 g/ha",43%
same,herbicidal effect,"Veronica persicae; 7 d, pelargonic acid 6800 g/ha",43%
same,herbicidal effect,"Veronica persicae; 7 d, pelargonic acid 8160 g/ha",43%
same,herbicidal effect,Veronica persicae; [1],43%
same,herbicidal effect,Veronica persicae; [2],50%
same,herbicidal effect,Veronica persicae; [11],50%
same,herbicidal effect,Veronica persicae; [12],50%
same,herbicidal effect,Veronica persicae; [3],50%
same,herbicidal effect,Veronica persicae; [14],24%
same,herbicidal effect,Veronica persicae; [15],24%
same,herbicidal effect,Veronica persicae; [16],24%
same,herbicidal effect,Veronica persicae; [17],24%
same,herbicidal effect,Veronica persicae; [18],0%
same,herbicidal effect,Veronica persicae; [21],0%

# — patent US20240365781A1, “SYNERGISTICALLY EFFECTIVE HERBICIDE COMPOSITION COMPRISING PELARGONIC ACID AND FLAZASULFURON” (Belchim Crop Protection NV, priority 2017, published 2024)
